Data reported in publication PMC10123561 (Signal Transduction and Targeted Therapy, 2023).
Values joined by “and” are separate entries in the source; they are usually repeats but may differ in a detail not shown here. Equal entries are not always repeated. “Also recorded” adds a separate entry of the source. Structures can show the parent of a compound that is named as a salt. Where two headings read alike, the source gives them in different places.

Columns and labels:
[1] = cited from earlier work
[2] = test system: Vero E6 cells
[3] = Lung distribution study in mouse; details: male, ICR, po
[4] = test system: cathepsin L; details: read-out: IC50 against cathepsin L; cited from earlier work
[5] = twice daily, cited from earlier work
[6] = human, in vivo
[7] = test system: wild type SARS-CoV-2; assay: microbe, parasite or virus in culture; assay type: cell-based; details: mean ± sd
[8] = test system: SARS-CoV-2; assay: Randomized open-label clinical trial in mild/moderate COVID-19 patients, efficacy; assay type: in vivo
[9] = rats, 4 h after oral administration; cited from earlier work
[10] = cited from earlier work; for AUC0-∞: healthy human volunteers
[11] = test system: SARS-CoV-2 spike mediated cell fusion; details: at 10 μM; cited from earlier work
[12] = target: SARS-CoV-2 PL^pro (Severe acute respiratory syndrome coronavirus 2, UniProt P0DTD1); assay: SARS-CoV-2 PL^pro inhibition assay; assay type: biochemical; details: read-out: inhibition rate against papain-like protease (PL^pro)
[13] = male, rhesus monkey, in vivo
[14] = test system: inflammatory cytokines; details: at 2.5 μM; cited from earlier work
[15] = in vitro; details: African green monkey
[16] = test system: SARS-CoV-2 strain 20SF107; assay type: in vivo, rhesus macaques
[17] = Pharmacokinetics in healthy rhesus macaques after nasogastric administration; details: 200 mg/kg nasogastric; for Cmax / AUC / MRT / half-life: rhesus monkey, plasma, 200 mg/kg
[18] = target: SARS-CoV-2 M^pro (Severe acute respiratory syndrome coronavirus 2, UniProt P0DTD1); assay: biochemical
[19] = target: SARS-CoV-2 RdRp complex (Severe acute respiratory syndrome coronavirus 2, UniProt P0DTD1); assay: biochemical
[20] = HIV-infected patients; cited from earlier work
[21] = target: cyclophilin A; design: method as in PMID 34677780; details: cited from earlier work
[22] = test system: SARS-CoV-2; details: cited from earlier work
[23] = test system: M^pro; details: read-out: Activity: IC50; cited from earlier work
[24] = Severe acute respiratory syndrome coronavirus 2, Vero C1008, Vero E6 cells
[25] = Severe acute respiratory syndrome coronavirus 2, Calu-3 cells
[26] = log-rank analysis, N = 5, NE = Not Evaluable

Q: For Cc1c(O)cccc1C(=O)N[C@@H](CSc1ccccc1)[C@H](O)CN1C[C@H]2CCCC[C@H]2C[C@H]1C(=O)NC(C)(C)C [nelfinavir, Nelfinavir Mesylate], which “concentration in the lung epithelial lining fluid versus plasma” value [1] is on record?
A: comparable to that in plasma

Q: And the “proportion of patients with detectable drug in bronchoalveolar lavage (BAL) fluid” value [1]?
A: 100%

Q: And the “lung distribution in patients relative to plasma” value ([1]; human, in vivo)?
A: approximately three times as high as that of plasma

Q: And the “selectivity index (SI)” value [2]?
A: 17.59

Q: What about the Kp [3] of the same compound?
A: 2 to 3

Q: What about the Kp at 0.5 h ([3]; 250 mg/kg) of the same compound?
A: 2.08 ± 0.5

Q: And the Kp at 1 h ([3]; 250 mg/kg)?
A: 2.35 ± 0.34

Q: What about the Kp at 3 h ([3]; 250 mg/kg) of the same compound?
A: 2.24 ± 0.59

Q: What about the Kp at 6 h ([3]; 250 mg/kg) of the same compound?
A: 1.81 ± 0.19

Q: What about the Kp at 9 h ([3]; 250 mg/kg) of the same compound?
A: 2.33 ± 0.28

Q: What about the Kp at 0.5 h ([3]; 750 mg/kg) of the same compound?
A: 2.07 ± 0.42

Q: What about the Kp at 1 h ([3]; 750 mg/kg) of the same compound?
A: 3.11 ± 0.82

Q: What about the Kp at 3 h ([3]; 750 mg/kg) of the same compound?
A: 2.83 ± 0.33

Q: And the Kp at 6 h ([3]; 750 mg/kg)?
A: 3.22 ± 0.63

Q: And the Kp at 9 h ([3]; 750 mg/kg)?
A: 2.61 ± 0.08

Q: And the IC50 [4]?
A: 18000 nM

Q: And the “maximum tolerated dosage (MTD)” value ([5]; adults with solid tumors)?
A: 3125 mg

Q: What about the “maximum tolerated dosage (MTD)” value ([5]; liposarcoma, MTD not reached) of the same compound?
A: > 4250 mg

Q: And the “cases of grade 1 adverse events” value [6]?
A: 15 cases

Q: What about the death of illness [6] of the same compound?
A: No patients died

Q: And the “grade of adverse events during the trial” value [6]?
A: all grade 1

Q: And the “number of patients with grade 1 adverse events” value [6]?
A: 10 patients

Q: And the “patients with abnormal sitting blood pressure, respiratory rate and pulse” value [6]?
A: no clinically significant patients

Q: What about the “proportion of patients with grade 1 adverse events” value [6] of the same compound?
A: 52.6%

Q: What about the EC50 [7, 24] of the same compound?
A: 2930 ± 320 nM

Q: What about the EC50 [7, 25] of the same compound?
A: 1860 ± 260 nM

Q: And the “proportion of subjects whose respiratory specimens were negative for SARS-CoV-2 RNA” value ([8]; 7th day of treatment, N = 19)?
A: 31.6%

Q: And the “proportion of cases with fever” value ([8]; 9/19)?
A: 47.4%

Q: What about the “chest CT results of moderate COVID-19” value ([8]; 14th day of treatment) of the same compound?
A: one patient was abnormal and had no clinical significance

Q: What about the “proportion of subjects whose respiratory specimens were negative for SARS-CoV-2 RNA” value ([8]; 14th day of treatment, N = 19) of the same compound?
A: 68.4%

Q: And the “progression to severe or critical pneumonia” value ([8]; 14th day of treatment, patients with mild COVID-19 (N = 5))?
A: no subjects

Q: What about the “TTCR time (time to clinical recovery)” value ([8]; N = 5, control 11.0 days) of the same compound?
A: 7.0 days

Q: And the “shortening of duration of fever time versus control group” value ([8]; P = 0.014)?
A: 3.8 days

Q: And the “shortening of median time for TTCR” value ([8]; P = 0.899)?
A: 4.0 days

Q: What about the “average fever days (duration of fever time) in patients with fever” value ([8]; control 6.6 ± 4.1 days, P = 0.014) of the same compound?
A: 2.8 days and 2.8 ± 1.6 days

Q: And the “progression of subjects with mild disease to pneumonia” value ([8]; day 7 of treatment)?
A: did not progress to pneumonia

Q: And the “time of TTCR, 25%(95%CI)” value [8, 26]?
A: 4.0(1.0~ NE) d

Q: What about the “time of TTCR, 50%(95%CI)” value [8, 26] of the same compound?
A: 7.0(1.0~ NE) d

Q: And the “time to convert to negative throat swab, 25%(95%CI)” value ([8]; log-rank analysis, N = 19)?
A: 5.0(1.0~9.0) d

Q: What about the “time to convert to negative throat swab, 50%(95%CI)” value ([8]; log-rank analysis, N = 19) of the same compound?
A: 9.0(5.0~11.0) d

Q: What about the “time to convert to negative throat swab, 75%(95%CI)” value ([8]; log-rank analysis, N = 19) of the same compound?
A: 12.0(9.0~22.0) d

Q: What about the “shortening of duration of viral shedding versus control group” value ([8]; median, P = 0.055) of the same compound?
A: 5.5 days

Q: And the “median time to convert to negative throat swab of SARS-CoV-2 (duration of viral shedding)” value ([8]; nelfinavir 1250 mg every 12 h, N = 19, control 14.5 days, P = 0.055)?
A: 9.0 days

Q: And the lung-to-plasma ratio [9]?
A: 3.24

Q: And the “AUC0-∞” value ([10]; dosage of 100 mg)?
A: 1250 ± 230 ng·h/mL

Q: What about the “AUC0-∞” value ([10]; dosage of 800 mg) of the same compound?
A: 22208 ± 6306 ng·h/mL

Q: What about the “plasma Ctrough,Morning” value ([10]; human, 1250 mg BID, ref VIRACEPT FDA Package Insert Reference ID: 3986049) of the same compound?
A: 3.87 µM

Q: And the Cmax ([10]; human, 1250 mg BID, ref VIRACEPT FDA Package Insert Reference ID: 3986049, read-out: plasma Cmax)?
A: 7.04 µM

Q: What about the “inhibition of SARS-CoV-2 spike mediated cell fusion” value [11] of the same compound?
A: completely inhibit

Q: And the inhibition at 100 µM [12]?
A: 33.3 ± 2.47%

Q: What about the “plasma concentration in infected relative to healthy rhesus macaques” value [13] of the same compound?
A: around 1/6

Q: And the “trough plasma concentration (Ctrough)” value [13]?
A: 0.26 µM

Q: What about the “plasma concentration at 5 h after dosing (C5h), average” value ([13]; 200 mg/kg) of the same compound?
A: 0.55 µM

Q: And the “inhibition of inflammatory cytokines in vitro” value [14]?
A: successfully inhibit

Q: And the CC50 [15]?
A: 51600 nM

Q: What about the “body weight change compared with control monkeys” value ([16]; 200 mg/kg prophylactic, twice daily) of the same compound?
A: not significant

Q: What about the “body temperature compared with vehicle control monkeys” value ([16]; 200 mg/kg prophylactic, twice daily, […]) of the same compound?
A: significantly lower

Q: What about the “viral loads in extrapulmonary tissues, e.g. colon and heart, compared with control group” value ([16]; […], no statistical difference) of the same compound?
A: increasing trends

Q: What about the “reduction of viral replication in the lungs” value ([16]; at necropsy, prophylactic treatment) of the same compound?
A: nearly three orders of magnitude; also recorded: approximately three orders of magnitude

Q: And the “reduction of virus RNA in lung (left lower lobe) compared to vehicle-treated monkeys” value ([16]; rhesus monkey, in vivo)?
A: 2.88 log

Q: What about the “viral load in nasal swabs compared with control group” value ([16]; rhesus monkey, in vivo) of the same compound?
A: Significant reductions; also recorded: significantly reduced; also recorded: significantly lower

Q: And the “viral load in rectal (anal) swabs compared with control group” value ([16]; rhesus monkey, in vivo)?
A: Significant reductions; also recorded: significantly reduced; also recorded: significantly lower

Q: What about the “viral load in throat swabs compared with control group” value ([16]; rhesus monkey, in vivo) of the same compound?
A: without significance

Q: And the “virus RNA in kidney samples” value ([16]; rhesus monkey, in vivo)?
A: could not be detected

Q: What about the Tpeak ([17]; Monkey 1, healthy) of the same compound?
A: 6.00 h

Q: And the Tpeak ([17]; Monkey 2, healthy)?
A: 4.00 h

Q: And the Cmax ([17]; oral, average maximum plasma concentration (Cmax), two healthy rhesus macaques)?
A: 3.2 µM

Q: And the AUC ([17]; po, AUCon, Monkey 1, healthy)?
A: 28.4 µM·h

Q: And the AUC ([17]; po, AUCon, Monkey 2, healthy)?
A: 10.6 µM·h

Q: And the AUC ([17]; po, AUCtot, Monkey 1, healthy)?
A: 28.4 µM·h

Q: What about the AUC ([17]; po, AUCtot, Monkey 2, healthy) of the same compound?
A: 10.7 µM·h

Q: What about the Cmax ([17]; po, Cmax, Monkey 1, healthy) of the same compound?
A: 5.33 µM

Q: And the Cmax ([17]; po, Cmax, Monkey 2, healthy)?
A: 1.07 µM

Q: What about the MRT ([17]; po, Monkey 1, healthy) of the same compound?
A: 7.25 h

Q: And the MRT ([17]; po, Monkey 2, healthy)?
A: 12 h

Q: What about the half-life ([17]; po, t1/2, Monkey 1, healthy) of the same compound?
A: 4.46 h

Q: What about the half-life ([17]; po, t1/2, Monkey 2, healthy) of the same compound?
A: 6.92 h

Q: And the “time at which Cmax was achieved after dosing” value ([17]; two healthy rhesus macaques)?
A: 5 h

Q: And the IC50 ([18]; IC50 against SARS-CoV-2 M^pro)?
A: 23000 nM and > 20000 nM

Q: And the IC50 ([18]; IC50 against SARS-CoV-2 main protease (M^pro))?
A: 8260 nM

Q: And the IC50 [19]?
A: 112000 ± 8200 nM

Q: What about the “Cmax in PBMCs relative to plasma” value [20] of the same compound?
A: ~ 15 fold

Q: And the “cellular accumulation in PBMCs relative to plasma” value [20]?
A: 5.30 fold

Q: What about the Kd [21] of the same compound?
A: 940 nM

Q: Which EC50 [7, 24] does the source give for CCC(CC)COC(=O)[C@H](C)N[P@](=O)(OC[C@H]1O[C@@](C#N)(c2ccc3c(N)ncnn23)[C@H](O)[C@@H]1O)Oc1ccccc1 [Remdesivir] here?
A: 1010 ± 130 nM

Q: What about the EC50 [7, 25] of the same compound?
A: 1110 ± 170 nM

Q: And the “reduction of recovery time” value ([22]; hospitalized adults)?
A: 5 days

Q: Which IC50 [23] does the source give for Cc1cc(S(=O)(=O)c2c([N+](=O)[O-])cc(C(F)(F)F)cc2[N+](=O)[O-])c(Cl)cc1Cl [D3F] here?
A: 300 nM

Q: What does the source list for CC(C)(C)[C@H](NC(=O)C(F)(F)F)C(=O)N1C[C@H]2[C@@H]([C@H]1C(=O)N[C@H](C#N)C[C@@H]1CCNC1=O)C2(C)C [nirmatrelvir]?
A: decrease of the probability of hospitalization or mortality ([22]; EPIC-HR, non-hospitalized adults at high risk): 89%; rate of hospitalization owing to COVID-19 among treated patients ([22]; patients aged 40 to 64 years, Israel, omicron, untreated 15.8): 15.2 instances per 100,000 person-days
